tested on: HIV-1 single-round infectious reporter virus; assay: Single-round infectious HIV-1 reporter virus (luciferase) infection assay in HeLa CD4 cells; settings: Human immunodeficiency virus 1, HeLa, 72 h, read-out: HIV_SC10PT (EC50, nM)
Description: 2. Compound was added in a 2 μl dimethylsulfoxide solution, so that the final assay concentration would be ≦10 μM.
3. 100 μl of single-round infectious reporter virus in Dulbecco's Modified Eagle Medium was then added to the plated cells and compound at an approximate multiplicity of infection (MOI) of 0.01, resulting in a final volume of 200 μl per well.
4. Virally-infected cells were incubated at 37 degrees Celsius, in a CO2 incubator, and harvested 72 h after infection.
5. Viral infection was monitored by measuring luciferase expression from viral DNA in the infected cells using a luciferase reporter gene assay kit, as described by the manufacturer (Roche Molecular Biochemicals, Indianapolis, Ind.). Infected cell supernatants were removed and 50 μl of lysis buffer was added per well. After 15 minutes, 50 μl of freshly-reconstituted luciferase assay reagent was added per well. Luciferase activity was then quantified by measuring luminescence using a Wallac MICROBETA® scintillation counter.
7. An EC50 provides a method for comparing the antiviral potency of the compounds of this disclosure. The effective concentration for fifty percent inhibition (EC50) was calculated with the Microsoft Excel Xlfit curve fitting software.

| Structure (SMILES) | EC50 |
| --- | --- |
| COc1cnc(-n2cnc(C)n2)c2[nH]cc(C(=O)C(=O)N3CCc4c(cccc4-c4ccccc4)C3)c12 [Compound 1, 1-(4-methoxy-7-(3-methyl-1H-1,2,4-triazol-1-yl)-1H-pyrrolo[2,3-c]pyridin-3-yl)-2-(5-phenyl-3,4-dihydroisoquinolin-2(1H)-yl)ethane-1,2-dione] | 0.02 nM |
| COc1cnc(-c2cc(C(=O)NCCO)[nH]n2)c2[nH]cc(C(=O)C(=O)N3CCc4c(cccc4-c4ccccn4)C3)c12 [Compound 9, N-(2-hydroxyethyl)-3-(4-methoxy-3-(2-oxo-2-(5-(pyridin-2-yl)-3,4-dihydroisoquinolin-2(1H)-yl)acetyl)-1H-pyrrolo[2,3-c]pyridin-7-yl)-1H-pyrazole-5-carboxamide] | 0.17 nM |
| COc1cnc(Cl)c2[nH]cc(C(=O)C(=O)N3CCc4c(cccc4-c4ccccn4)C3)c12 [Compound 30, 1-(7-chloro-4-methoxy-1H-pyrrolo[2,3-c]pyridin-3-yl)-2-(5-(pyridin-2-yl)-3,4-dihydroisoquinolin-2(1H)-yl)ethane-1,2-dione] | 171 nM |

same assay, conditions: Human immunodeficiency virus 1, HeLa, 72 h, read-out: HIV_SC10PT (EC50, nM), group symbol

| Structure (SMILES) | EC50 |
| --- | --- |
| COc1cnc(-n2cnc(C)n2)c2[nH]cc(C(=O)C(=O)N3CCc4c(cccc4-c4ccccn4)C3)c12 [Compound 2, 1-(4-methoxy-7-(3-methyl-1H-1,2,4-triazol-1-yl)-1H-pyrrolo[2,3-c]pyridin-3-yl)-2-(5-(pyridin-2-yl)-3,4-dihydroisoquinolin-2(1H)-yl)ethane-1,2-dione] | < 100 nM |
| CNC(=O)c1cc(-c2ncc(OC)c3c(C(=O)C(=O)N4CCc5c(cccc5-c5ccccn5)C4)c[nH]c23)n[nH]1 [Compound 4, 3-(4-methoxy-3-(2-oxo-2-(5-(pyridin-2-yl)-3,4-dihydroisoquinolin-2(1H)-yl)acetyl)-1H-pyrrolo[2,3-c]pyridin-7-yl)-N-methyl-1H-pyrazole-5-carboxamide] | < 100 nM |
| CNC(=O)c1ncc(OC)c2c(C(=O)C(=O)N3CCc4c(cccc4-c4ccccn4)C3)c[nH]c12 [Compound 5, 4-methoxy-N-methyl-3-(2-oxo-2-(5-(pyridin-2-yl)-3,4-dihydroisoquinolin-2(1H)-yl)acetyl)-1H-pyrrolo[2,3-c]pyridine-7-carboxamide] | < 100 nM |
| COc1cnc(C(=O)NCCO)c2[nH]cc(C(=O)C(=O)N3CCc4c(cccc4-c4ccccn4)C3)c12 [Compound 6, N-(2-hydroxyethyl)-4-methoxy-3-(2-oxo-2-(5-(pyridin-2-yl)-3,4-dihydroisoquinolin-2(1H)-yl)acetyl)-1H-pyrrolo[2,3-c]pyridine-7-carboxamide] | < 100 nM |
| COc1cnc(-c2cc(C(=O)O)[nH]n2)c2[nH]cc(C(=O)C(=O)N3CCc4c(cccc4-c4ccccn4)C3)c12 [Compound 7, 3-(4-methoxy-3-(2-oxo-2-(5-(pyridin-2-yl)-3,4-dihydroisoquinolin-2(1H)-yl)acetyl)-1H-pyrrolo[2,3-c]pyridin-7-yl)-1H-pyrazole-5-carboxylic acid] | < 100 nM |
| COc1cnc(-c2cc(C(=O)N(C)C)[nH]n2)c2[nH]cc(C(=O)C(=O)N3CCc4c(cccc4-c4ccccn4)C3)c12 [Compound 8, 3-(4-methoxy-3-(2-oxo-2-(5-(pyridin-2-yl)-3,4-dihydroisoquinolin-2(1H)-yl)acetyl)-1H-pyrrolo[2,3-c]pyridin-7-yl)-N,N-dimethyl-1H-pyrazole-5-carboxamide] | < 100 nM |
| COc1cnc(-n2ccc(C(F)(F)F)n2)c2[nH]cc(C(=O)C(=O)N3CCc4c(cccc4-c4ccccn4)C3)c12 [Compound 10, 1-(4-methoxy-7-(3-(trifluoromethyl)-1H-pyrazol-1-yl)-1H-pyrrolo[2,3-c]pyridin-3-yl)-2-(5-(pyridin-2-yl)-3,4-dihydroisoquinolin-2(1H)-yl)ethane-1,2-dione] | < 100 nM |
| COc1cnc(-n2cncn2)c2[nH]cc(C(=O)C(=O)N3CCc4c(cccc4-c4ccccn4)C3)c12 [Compound 11, 1-(4-methoxy-7-(1H-1,2,4-triazol-1-yl)-1H-pyrrolo[2,3-c]pyridin-3-yl)-2-(5-(pyridin-2-yl)-3,4-dihydroisoquinolin-2(1H)-yl)ethane-1,2-dione] | < 100 nM |
| COc1cnc(-n2cnc(C(F)(F)F)n2)c2[nH]cc(C(=O)C(=O)N3CCc4c(cccc4-c4ccccn4)C3)c12 [Compound 12, 1-(4-methoxy-7-(3-(trifluoromethyl)-1H-1,2,4-triazol-1-yl)-1H-pyrrolo[2,3-c]pyridin-3-yl)-2-(5-(pyridin-2-yl)-3,4-dihydroisoquinolin-2(1H)-yl)ethane-1,2-dione] | < 100 nM |
| COCc1ncnn1-c1ncc(OC)c2c(C(=O)C(=O)N3CCc4c(cccc4-c4ccccn4)C3)c[nH]c12 [Compound 13, 1-(4-methoxy-7-(5-(methoxymethyl)-1H-1,2,4-triazol-1-yl)-1H-pyrrolo[2,3-c]pyridin-3-yl)-2-(5-(pyridin-2-yl)-3,4-dihydroisoquinolin-2(1H)-yl)ethane-1,2-dione] | < 100 nM |
| COCc1ncn(-c2ncc(OC)c3c(C(=O)C(=O)N4CCc5c(cccc5-c5ccccn5)C4)c[nH]c23)n1 [Compound 14, 1-(4-methoxy-7-(3-(methoxymethyl)-1H-1,2,4-triazol-1-yl)-1H-pyrrolo[2,3-c]pyridin-3-yl)-2-(5-(pyridin-2-yl)-3,4-dihydroisoquinolin-2(1H)-yl)ethane-1,2-dione] | < 100 nM |
| COc1cnc(-n2cnc(C(C)(F)F)n2)c2[nH]cc(C(=O)C(=O)N3CCc4c(cccc4-c4ccccn4)C3)c12 [Compound 17, 1-(7-(3-(1,1-difluoroethyl)-1H-1,2,4-triazol-1-yl)-4-methoxy-1H-pyrrolo[2,3-c]pyridin-3-yl)-2-(5-(pyridin-2-yl)-3,4-dihydroisoquinolin-2(1H)-yl)ethane-1,2-dione] | < 100 nM |
| COc1cnc(-n2ccnn2)c2[nH]cc(C(=O)C(=O)N3CCc4c(ncnc4-c4ccccn4)C3)c12 [Compound 19, 1-(4-methoxy-7-(1H-1,2,3-triazol-1-yl)-1H-pyrrolo[2,3-c]pyridin-3-yl)-2-(4-(pyridin-2-yl)-5,6-dihydropyrido[3,4-d]pyrimidin-7(8H)-yl)ethane-1,2-dione] | < 100 nM |
| COc1cnc(-c2cc(CO)[nH]n2)c2[nH]cc(C(=O)C(=O)N3CCc4c(ncnc4-c4ccccn4)C3)c12 [Compound 21, 1-(7-(5-(hydroxymethyl)-1H-pyrazol-3-yl)-4-methoxy-1H-pyrrolo[2,3-c]pyridin-3-yl)-2-(4-(pyridin-2-yl)-5,6-dihydropyrido[3,4-d]pyrimidin-7(8H)-yl)ethane-1,2-dione] | < 100 nM |
| COc1cnc(-c2cc(C(C)(C)O)[nH]n2)c2[nH]cc(C(=O)C(=O)N3CCc4c(ncnc4-c4ccccn4)C3)c12 [Compound 22, 1-(7-(5-(2-hydroxypropan-2-yl)-1H-pyrazol-3-yl)-4-methoxy-1H-pyrrolo[2,3-c]pyridin-3-yl)-2-(4-(pyridin-2-yl)-5,6-dihydropyrido[3,4-d]pyrimidin-7(8H)-yl)ethane-1,2-dione] | < 100 nM |
| COc1cnc(-n2cnc(CO)n2)c2[nH]cc(C(=O)C(=O)N3CCc4c(ncnc4-c4ccccn4)C3)c12 [Compound 23, 1-(7-(3-(hydroxymethyl)-1H-1,2,4-triazol-1-yl)-4-methoxy-1H-pyrrolo[2,3-c]pyridin-3-yl)-2-(4-(pyridin-2-yl)-5,6-dihydropyrido[3,4-d]pyrimidin-7(8H)-yl)ethane-1,2-dione] | < 100 nM |
| COc1cnc(-n2cnc(C(C)O)n2)c2[nH]cc(C(=O)C(=O)N3CCc4c(ncnc4-c4ccccn4)C3)c12 (stereo not shown) [Compound 24, 1-(7-(3-(1-hydroxyethyl)-1H-1,2,4-triazol-1-yl)-4-methoxy-1H-pyrrolo[2,3-c]pyridin-3-yl)-2-(4-(pyridin-2-yl)-5,6-dihydropyrido[3,4-d]pyrimidin-7(8H)-yl)ethane-1,2-dione] | < 100 nM |
| COc1cnc(-n2cnc(C)n2)c2[nH]cc(C(=O)C(=O)N3CCc4c(cc(C#N)c(=O)n4-c4ccccc4)C3)c12 [Compound 25, 6-(2-(4-methoxy-7-(3-methyl-1H-1,2,4-triazol-1-yl)-1H-pyrrolo[2,3-c]pyridin-3-yl)-2-oxoacetyl)-2-oxo-1-phenyl-1,2,5,6,7,8-hexahydro-1,6-naphthyridine-3-carbonitrile] | < 100 nM |
| COc1cnc(-n2cnc(C)n2)c2[nH]cc(C(=O)C(=O)N3CCc4c(ccnc4-c4ccccn4)C3)c12 [Compound 26, 1-(4-methoxy-7-(3-methyl-1H-1,2,4-triazol-1-yl)-1H-pyrrolo[2,3-c]pyridin-3-yl)-2-(5-(pyridin-2-yl)-3,4-dihydro-2,6-naphthyridin-2(1H)-yl)ethane-1,2-dione] | < 100 nM |
| COc1cnc(-n2cnc(C)n2)c2[nH]cc(C(=O)C(=O)N3CCc4c(ccnc4-c4ccccc4)C3)c12 [Compound 27, 1-(4-methoxy-7-(3-methyl-1H-1,2,4-triazol-1-yl)-1H-pyrrolo[2,3-c]pyridin-3-yl)-2-(5-phenyl-3,4-dihydro-2,6-naphthyridin-2(1H)-yl)ethane-1,2-dione] | < 100 nM |
| COc1cnc(-n2cnc(C)n2)c2[nH]cc(C(=O)C(=O)N3CCc4c(-c5ccccn5)cccc4C3O)c12 (stereo not shown) [Compound 28, 1-(1-hydroxy-5-(pyridin-2-yl)-3,4-dihydroisoquinolin-2(1H)-yl)-2-(4-methoxy-7-(3-methyl-1H-1,2,4-triazol-1-yl)-1H-pyrrolo[2,3-c]pyridin-3-yl)ethane-1,2-dione] | < 100 nM |
| COc1cnc(-c2cc(CO)[nH]n2)c2[nH]cc(C(=O)C(=O)N3CCc4c(cccc4-c4ccccn4)C3)c12 [Compound 29, 1-(7-(5-(hydroxymethyl)-1H-pyrazol-3-yl)-4-methoxy-1H-pyrrolo[2,3-c]pyridin-3-yl)-2-(5-(pyridin-2-yl)-3,4-dihydroisoquinolin-2(1H)-yl)ethane-1,2-dione] | < 100 nM |
